In this test the target is Glycogen synthase kinase-3 alpha (Homo sapiens) (UniProt P49840). The test can be described thus: concentration-response blocking of human GSK3A – biochemical, luminescence, cell-free homogeneous, retest, dose response (AID 463203). Conditions: GSK-3 alpha enzyme, ADP-Glo luminescence, 60 min. Background: ADP-Glo turns the ADP formed in a reaction into a luminescent signal.

This passage reports AC50 results from PubChem BioAssay AID463203 (Broad Institute, 2010).

Calls of active or inactive are those of the source.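 How the source made its calls: active means more than half of replicate measurements showing over 20% loss of kinase signal relative to plate controls; inconclusive means some but at most half of replicates over 20% loss; inactive means no replicate over 20% signal loss.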 Some results are limits rather than exact numbers.

Sequence of Glycogen synthase kinase-3 alpha (Homo sapiens) (P49840 whole entry, looked up): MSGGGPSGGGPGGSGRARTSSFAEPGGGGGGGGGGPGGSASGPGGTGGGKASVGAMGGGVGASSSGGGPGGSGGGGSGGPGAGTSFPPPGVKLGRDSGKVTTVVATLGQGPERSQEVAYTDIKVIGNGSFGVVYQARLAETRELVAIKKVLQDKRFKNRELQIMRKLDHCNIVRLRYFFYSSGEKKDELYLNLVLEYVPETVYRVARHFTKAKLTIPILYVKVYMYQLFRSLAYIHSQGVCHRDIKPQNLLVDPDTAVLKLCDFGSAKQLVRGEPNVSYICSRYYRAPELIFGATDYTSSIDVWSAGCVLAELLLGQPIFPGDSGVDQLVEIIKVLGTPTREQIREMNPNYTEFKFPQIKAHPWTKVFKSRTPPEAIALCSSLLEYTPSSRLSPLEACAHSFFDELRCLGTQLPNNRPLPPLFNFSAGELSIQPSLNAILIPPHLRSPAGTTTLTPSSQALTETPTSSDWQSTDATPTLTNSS

For `Cc1cc2nc(-c3ccc(=O)[nH]c3)n(Cc3ccccc3)c2cc1C`, the AC50 is > 30 µM (inactive).

Take `COc1cccc(C2C3(C#N)C(N)=NC(OC)(OC)C23C#N)c1` (stereo not drawn): the AC50 is > 30 µM (inactive).

Consider `COc1ccc(C2=Nn3c(nnc3-c3ccncc3)SC2)cc1OC`, for which the AC50 is 2.37 µM.

As for `COc1c(C)cc(Br)cc1C(=O)Nc1cccc(NC(=O)c2ccco2)c1`, the AC50 is > 30 µM (inactive).

For `COc1ccc(C(=O)O/N=C(\N)c2ccccc2)cc1`, the AC50 is 25 µM.

For `Cc1nnc(NC(=O)Oc2ccccc2)s1`, the AC50 is > 30 µM (inactive).

With `COC1OC(COC(=O)c2ccccc2)C(OC(=O)c2ccccc2)C1OC(=O)c1ccccc1` (stereo not drawn), the AC50 was > 30 µM (inactive).

For `CSc1ccc(-c2cc(=O)c3ccccc3o2)cc1`, the AC50 is > 30 µM (inactive).

Consider `Cc1ccc2nc3c(cc2c1)c(NS(=O)(=O)c1ccccc1)nn3CC(C)C`, for which the AC50 is > 30 µM (inactive).

For the molecule `CCCCCCCOC(=O)C1=C(C)Nc2ncnn2C1c1cccs1` (stereo not drawn), the AC50 is > 30 µM (inactive).

Turning to `COc1cc(/C=C2\S/C(=N/S(=O)(=O)Cc3ccccc3)NC2=O)c([N+](=O)[O-])cc1OC`, the AC50 is > 30 µM (inactive).

Consider `CCCOc1cccc(-c2nnc(N)s2)c1`, for which the AC50 was > 30 µM (inactive).

As to `CC(C)(C)OC(=O)N1CCN(C(=O)c2[nH]cnc2C(=O)Nc2ccon2)CC1`, the AC50 is > 30 µM (inactive).

Consider `O=C(CSc1nc2nc(-c3cccs3)cc(C(F)(F)F)c2c(=O)[nH]1)Nc1ccc(F)c(F)c1`, for which the AC50 was > 30 µM (inactive).

Turning to `O=C(O)c1cn(-c2ccccc2)nc1-c1cccnc1`, the AC50 was > 30 µM (inactive).

For `Cc1nc(NCC2CCCO2)nc2c1C(=O)CC(C)(C)C2` (stereo not drawn), the AC50 was > 30 µM (inactive).

`Cn1c(N=Nc2ccccc2)nc2ccccc21`: the AC50 is 21.1 µM.

Regarding `COC(=O)C1=C(C(=O)OC)C(c2cc(Cl)ccc2O)c2sc(=O)[nH]c2S1` (stereo not drawn), the AC50 was 28.4 µM.

As for `Nc1nc2n(n1)C(c1ccc(Cl)cc1)CC(c1ccc(F)cc1)N2` (stereo not drawn), the AC50 is > 30 µM (inactive).

For the molecule `COc1cccc(/C=N/n2nnnc2N)c1OCC#N`, the AC50 was > 30 µM (inactive).

With `Cc1c(CCC(=O)O)c(=O)oc2cc(O)ccc12`, the AC50 was > 30 µM (inactive).

Regarding `CC1(C)Cc2nc3sc4c(SCC(=O)O)ncnc4c3cc2CO1`, the concentration at half-maximal activity (AC50) is 6.18 µM.

With `CCc1cccc(NC(=O)C2CCN(c3ncnc4sc(C)c(C)c34)CC2)c1`, the AC50 was > 30 µM (inactive).

`Cc1ccc(OCc2nnnn2-c2ccccc2)cc1`: the AC50 was > 30 µM (inactive).

`Nc1nonc1-n1nnc(C(=O)N/N=C/c2cccnc2)c1-c1cccs1`: the AC50 is 1.03 µM.

With `O=C(NCCc1csc(-c2cccnc2)n1)c1ccc(Br)o1`, the AC50 is 17.8 µM.

With `CCOC(=O)c1cc(-c2ccccc2)n(CCC(=O)NC(C)CC)c1C` (stereo not drawn), the AC50 is > 30 µM (inactive).

As for `COc1cc(C2C(C#N)=C(N)Oc3n[nH]c(-c4cccs4)c32)cc(OC)c1O` (stereo not drawn), the AC50 was > 30 µM (inactive).

As to `O=C(c1ccco1)c1cn(CC(=O)N2CCCC2)c2ccccc12`, the AC50 was > 30 µM (inactive).

On to `CCOc1ccc(N=C2NC(=O)SC2CC(=O)OC)cc1` (stereo not drawn), for which the AC50 is > 30 µM (inactive).

Consider `COc1ccc(-c2cc(=O)c3ccccc3o2)cc1`, for which the AC50 was > 30 µM (inactive).

In the case of `O=S(=O)(NCC1CCCO1)c1ccc(Cl)nc1` (stereo not drawn), the AC50 was > 30 µM (inactive).

Regarding `Cc1nnc(SCC(=O)Nc2sc3c(c2C(=O)c2ccccc2)CCCC3)s1`, the AC50 was > 30 µM (inactive).

Turning to `COc1ccc(-c2cc(=O)c3ccccc3s2)cc1`, the AC50 was > 30 µM (inactive).

In the case of `Cc1ccc2oc(=O)c3cnn(CC(=O)N4CCN(c5ccccc5)CC4)c3c2c1`, the AC50 was > 30 µM (inactive).

On to `CS(=O)(=O)N1CCN(c2ccccc2NC(=O)c2cccs2)CC1`, for which the AC50 was > 30 µM (inactive).

Consider `O=C(Cn1c(NCCCO)nc2ccccc21)c1ccc([N+](=O)[O-])cc1`, for which the AC50 is > 30 µM (inactive).

In the case of `Cc1nc(C)c(C(=O)Nc2ncc([N+](=O)[O-])s2)o1`, the AC50 was > 30 µM (inactive).

Turning to `N#CCSc1nnc(-c2ccc3c(c2)OCO3)o1`, the AC50 was 18.1 µM.

With `O=C1NC(=Nc2ccccc2)S/C1=C\c1cccs1`, the AC50 was > 30 µM (inactive).

`O=c1cc[nH]c2ccc(OC(F)(F)F)cc12`: the AC50 was > 30 µM (inactive).

As to `CCC(C)[C@H](NC(=O)NCc1ccc(Cl)cc1)C(=O)OC` (stereo partly drawn), the AC50 is > 30 µM (inactive).

Turning to `N#Cc1c(-c2ccccc2)nc(SCc2ccc(Cl)cc2)[nH]c1=O`, the AC50 was > 30 µM (inactive).

For `O=C(O)c1cccc(Nc2nc(-c3cccnc3)nc3ccccc23)c1`, the AC50 was 12.5 µM.

Regarding `COc1cccc(-c2c(C(=O)N/N=C/c3ccoc3)nnn2-c2nonc2N)c1`, the concentration at half-maximal activity (AC50) was 7.92 µM.

Regarding `CCOC(=O)/C(C#N)=C1/SC(CCO)C(=O)N1c1ccccc1` (stereo not drawn), the AC50 was 13.1 µM.

On to `COc1ccc(NC(=O)c2ccc(NCC3CCCO3)c([N+](=O)[O-])c2)cc1` (stereo not drawn), for which the AC50 is > 30 µM (inactive).

Turning to `CC(=O)Nc1ccc(NC(=O)CSc2nnc(-c3ccc4c(c3)OCO4)o2)cc1`, the AC50 is 2.61 µM.

In the case of `CCCCC(=O)Nc1sc2c(c1C(N)=O)CCC2`, the AC50 was > 30 µM (inactive).

For `CCOC(=O)c1cc(CC)sc1NC(=O)C1CC1`, the AC50 was > 30 µM (inactive).

Turning to `CCOC(=O)CC(C#N)c1c[nH]c2ccccc12` (stereo not drawn), the AC50 was > 30 µM (inactive).

Consider `O=C(Nc1cccc(O)c1)c1ccc([N+](=O)[O-])cc1Cl`, for which the AC50 was > 30 µM (inactive).

On to `CNC(=O)CSc1nnc(-c2ccco2)n1-c1ccccc1OC`, for which the AC50 is > 30 µM (inactive).

Take `Oc1ccc(-c2nc3ncccn3c2Nc2ccc3c(c2)OCCO3)cc1`: the AC50 was > 30 µM (inactive).

As to `COc1ccc(CC(=O)N2CCOCC2)cc1`, the AC50 was > 30 µM (inactive).

As to `Cc1nc(SCC(=O)NCC2CCCO2)c2c3c(sc2n1)CCCC3` (stereo not drawn), the AC50 is > 30 µM (inactive).

As to `Cc1sc2ncnc(N3CCC(C(=O)Nc4ccc(S(N)(=O)=O)cc4)CC3)c2c1C`, the AC50 is 28.2 µM.

On to `Oc1ccc(/C=N/Nc2nccnc2Cl)cc1`, for which the AC50 is 24.8 µM.

As to `COc1ccccc1N=c1oc2cc(O)ccc2cc1C(N)=O`, the AC50 is 4.68 µM.

For `NC(=O)c1cc([N+](=O)[O-])ccc1NCc1ccc(N)cc1`, the AC50 is 8.36 µM.

For `CCOC(=O)c1cc(C(=O)OCC)c2cc(Br)ccc2n1`, the AC50 is > 30 µM (inactive).

On to `Cc1nc(SCC(=O)Nc2ccccc2C(F)(F)F)c(C#N)c(C)c1CC(=O)c1ccc(Br)cc1`, for which the AC50 is > 30 µM (inactive).

Turning to `O=C(NCCCN1CCOCC1)c1cc(Cl)ccc1[N+](=O)[O-]`, the AC50 is > 30 µM (inactive).

In the case of `COCCn1c(SCC(=O)Nc2cc(C)on2)nc2ccccc21`, the AC50 is > 30 µM (inactive).

Take `Cc1cc(NS(=O)(=O)c2ccc(Nc3nc(-c4ccc(O)cc4)cs3)cc2)no1`: the concentration at half-maximal activity (AC50) is 15.3 µM.

For the molecule `Cc1cccc(-c2nnc3n2N=C(c2ccccc2)CS3)c1`, the AC50 was > 30 µM (inactive).

In the case of `Clc1ccc(-c2noc(COc3ccccc3)n2)cc1`, the AC50 was > 30 µM (inactive).

As for `O=c1ccc(-c2nc3ccccc3n2Cc2ccc(Cl)cc2)c[nH]1`, the AC50 is > 30 µM (inactive).

Regarding `CC[n+]1c(/C=C/N(C)c2ccccc2)n(-c2ccccc2)c2ccc(-c3nc4ccccc4s3)cc21`, the AC50 is > 30 µM (inactive).

As for `CC1CCN(Cc2c(C(=O)N/N=C/c3cccc(Cl)c3)nnn2-c2nonc2N)CC1`, the AC50 was 2.73 µM.

As to `COC(=O)c1nnn(-c2ccccc2)c1N`, the AC50 is > 30 µM (inactive).

`CN1CCN(Cc2c(C(=O)N/N=C/c3cccc(Br)c3)nnn2-c2nonc2N)CC1`: the AC50 is 20.2 µM.

On to `CC1CN(c2nc(N(C)c3ccccc3)nc(N)c2[N+](=O)[O-])CC(C)O1` (stereo not drawn), for which the AC50 was > 30 µM (inactive).

In the case of `Cc1cccc(OCC(=O)N2CCN(c3nnc(-c4ccccc4)c4ccccc34)CC2)c1`, the AC50 is > 30 µM (inactive).

On to `CC(C)Nc1nc(NC(C)C)nc(C(=O)OCCO)n1`, for which the AC50 was > 30 µM (inactive).

Consider `COc1ccc(-n2c(SCC(N)=O)nnc2-c2ccco2)cc1`, for which the AC50 was > 30 µM (inactive).

Regarding `COc1ccc(-n2c(C)c([N+](=O)[O-])c3ccc(O)c(CN4CCCCC4)c32)cc1`, the AC50 is 19.1 µM.

Turning to `COc1ccc(-c2ncncc2-c2ccc(OC)c(OC)c2)c(O)c1`, the AC50 is 10.3 µM.

Consider `Cc1ccc(C(=O)Nc2nnc(C)s2)cc1`, for which the AC50 is > 30 µM (inactive).

In the case of `COc1cc(/C=N/NC(=O)c2ccoc2C)ccc1O`, the AC50 is > 30 µM (inactive).

In the case of `CC1CCN(Cc2c(O)ccc3c2O/C(=C\c2ccco2)C3=O)CC1`, the AC50 was 4.41 µM.

As for `Cc1cc(NCc2ccco2)n2c(nc3ccccc32)c1C#N`, the AC50 was > 30 µM (inactive).

Turning to `O=Cc1cc(N=Nc2ccc(S(=O)(=O)O)cc2)ccc1O`, the AC50 is > 30 µM (inactive).

As for `Cc1ccc(C(=O)c2c(NC(=O)CSc3nnc(N)s3)sc3c2CCCC3)cc1`, the AC50 is > 30 µM (inactive).

As for `COc1ccc(/C=N/NC(=O)c2nnn(-c3nonc3N)c2-c2cccs2)cc1OC`, the AC50 was 1.41 µM.

As to `CCN(CC)c1nc(N)c([N+](=O)[O-])c(NCCO)n1`, the AC50 was > 30 µM (inactive).

Turning to `COc1cccc(C2C(C(=O)OC(C)C)=C(C)Nc3ncnn32)c1` (stereo not drawn), the AC50 was 15.2 µM.

For the molecule `O=c1[nH]c(=O)n(Cc2ccc(F)cc2)c(O)c1C=NCCCn1ccnc1`, the AC50 was > 30 µM (inactive).

Take `Cc1ccc(C2C3=C(CCCC3=O)Nc3c2c(C)nn3-c2ccccn2)o1` (stereo not drawn): the AC50 is > 30 µM (inactive).

Regarding `Cc1ccc(Sc2ccc(NC(=O)CCl)cc2)c(C)c1`, the AC50 is > 30 µM (inactive).

`O=C(N/N=C/c1ccc(O)c(O)c1)C1CC1`: the AC50 was > 30 µM (inactive).

Take `COc1ccc(NC(=O)c2ccc(NCCCN3CCOCC3)c([N+](=O)[O-])c2)cc1`: the AC50 is > 30 µM (inactive).

Regarding `Cc1cc(N2CCN(c3ccccc3)CC2)n2ncnc2n1`, the AC50 was > 30 µM (inactive).

The AC50 is the midpoint of the concentration-response curve, whichever way the signal moves.
